Results as given in publication PMC2864230 (Nature chemical biology, 2009).

Tests used:
ERα [1] = biological target: T1, ERα (Homo sapiens, UniProt P03372); assay: Competitive binding with E2-Alexa633 in COS7 cells transfected with ERα-GFP
T1 sequence (P03372 1-595): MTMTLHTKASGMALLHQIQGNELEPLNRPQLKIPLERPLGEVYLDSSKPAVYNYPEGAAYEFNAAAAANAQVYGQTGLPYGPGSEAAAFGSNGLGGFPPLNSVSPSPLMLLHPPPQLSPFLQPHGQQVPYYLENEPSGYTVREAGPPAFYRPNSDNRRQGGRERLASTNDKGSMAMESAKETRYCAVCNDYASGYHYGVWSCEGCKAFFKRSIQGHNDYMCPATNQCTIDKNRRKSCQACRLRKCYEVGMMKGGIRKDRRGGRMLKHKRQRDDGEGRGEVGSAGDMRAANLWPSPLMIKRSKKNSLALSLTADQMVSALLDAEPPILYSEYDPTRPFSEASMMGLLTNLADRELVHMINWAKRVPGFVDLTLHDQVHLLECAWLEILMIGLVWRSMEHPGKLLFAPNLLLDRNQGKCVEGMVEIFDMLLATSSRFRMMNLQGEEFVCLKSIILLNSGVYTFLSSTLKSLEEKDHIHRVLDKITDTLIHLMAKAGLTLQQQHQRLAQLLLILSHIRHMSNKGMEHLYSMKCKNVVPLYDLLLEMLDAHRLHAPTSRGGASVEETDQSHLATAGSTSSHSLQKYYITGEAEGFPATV

GPR30 [2] = biological target: T2, GPR30 (Homo sapiens, UniProt Q99527); assay: Intracellular calcium mobilization in indo1-AM-loaded SKBr3 cells; format: cell-based; conditions: G15 1 μM
T2 sequence (Q99527 whole entry): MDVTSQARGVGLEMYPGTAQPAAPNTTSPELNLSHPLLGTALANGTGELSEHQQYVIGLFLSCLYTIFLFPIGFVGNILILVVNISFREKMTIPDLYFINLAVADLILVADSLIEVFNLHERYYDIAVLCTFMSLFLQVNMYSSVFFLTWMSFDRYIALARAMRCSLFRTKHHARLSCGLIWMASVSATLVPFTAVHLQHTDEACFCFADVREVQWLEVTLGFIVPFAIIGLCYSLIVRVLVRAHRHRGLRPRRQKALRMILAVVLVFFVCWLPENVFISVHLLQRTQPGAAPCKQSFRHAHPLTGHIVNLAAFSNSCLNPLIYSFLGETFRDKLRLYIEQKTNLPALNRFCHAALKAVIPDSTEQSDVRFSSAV

GPR30 [3] = biological target: T2, GPR30; assay: PI3K activation; format: cell-based; conditions: GPR30-transfected COS7 cells
ERα [4] = biological target: T1, ERα; assay: PI3K activation; format: cell-based; conditions: ERα-transfected COS7 cells; concentrations 100-fold greater than required to inhibit GPR30
ERβ = ERβ (Homo sapiens, UniProt Q92731); assay: PI3K activation; format: cell-based; conditions: ERβ-transfected COS7 cells; concentrations 100-fold greater than required to inhibit GPR30
Sequence of ERβ (Q92731 whole entry, species assumed): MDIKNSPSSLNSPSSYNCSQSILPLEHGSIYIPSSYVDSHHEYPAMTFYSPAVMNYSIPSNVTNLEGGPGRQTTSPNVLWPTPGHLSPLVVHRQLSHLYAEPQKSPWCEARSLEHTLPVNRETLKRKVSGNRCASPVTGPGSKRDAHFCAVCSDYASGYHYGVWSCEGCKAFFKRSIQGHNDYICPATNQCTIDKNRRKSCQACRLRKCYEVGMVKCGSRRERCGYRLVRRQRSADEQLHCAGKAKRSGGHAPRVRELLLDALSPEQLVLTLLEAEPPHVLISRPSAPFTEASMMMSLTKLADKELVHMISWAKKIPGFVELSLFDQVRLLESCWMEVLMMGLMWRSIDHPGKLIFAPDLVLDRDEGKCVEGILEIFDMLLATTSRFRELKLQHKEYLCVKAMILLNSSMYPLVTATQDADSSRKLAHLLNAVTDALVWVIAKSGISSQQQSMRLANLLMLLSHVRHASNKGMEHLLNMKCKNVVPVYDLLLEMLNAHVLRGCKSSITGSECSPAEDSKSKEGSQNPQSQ

GPR30 [5] = biological target: T2, GPR30; assay: PI3K activation; format: cell-based; conditions: SKBr3 cells
uterine epithelia = assay: Mouse uterine estrogenicity assay; format: in vivo; conditions: G15 plus E2 (0.74 nmol); dose-dependent, maximal at 10-fold molar excess of G15
adult male ICR mice = assay: Mouse depression assay; format: in vivo; conditions: intraperitoneal

SMILES: Brc1cc2c(cc1[C@@H]1Nc3ccccc3[C@@H]3C=CC[C@@H]31)OCO2 (racemic) [G15, 4-(6-Bromo-benzo[1,3]dioxol-5-yl)-3a,4,5,9b-tetrahydro-3H-cyclopenta[c]quinoline]
- Ki (ERα [1]): > 10 µM
- mobilization of intracellular calcium by compound alone (GPR30 [2]; G-1 200 nM, E2 100 nM): incapable of inducing a response
- effect of G15 exposure on subsequent calcium response to G-1 or estrogen (GPR30 [2]; then G-1 200 nM or E2 100 nM): substantially reduced the response
- inhibition of G-1-mediated activation of PI3K (GPR30 [3]): capable of inhibiting
- inhibition of estrogen-mediated PI3K response (GPR30 [3]): effectively blocked
- effect on estrogen-mediated PI3K response (ERα [4]): no effect
- effect on estrogen-mediated PI3K response (ERβ): no effect
- inhibition of estrogen and G-1 stimulation of PI3K (GPR30 [5]): able to inhibit
- reduction of E2-induced uterine epithelial proliferation (uterine epithelia): approximately 50%
- effect of G15 pretreatment on the G-1 effect on immobility time (adult male ICR mice; G15 10 nmol/mouse + G-1 1 nmol/mouse): significantly attenuated
- effect of G15 pretreatment on the E2 effect on immobility time (adult male ICR mice; G15 25 nmol/mouse + soluble E2 5 mg/kg): significantly attenuated
